Test [1] concerns human naso-pharyngeal cell line KB. In words: Test (b): in vitro inhibition of EGF-stimulated growth of KB cells (MTT). It is filed as cell-based. The note with it: 72 h, EGF (10 ng/ml), incubation for 3 days. The method, then:
(b) An in vitro assay which determines the ability of a test compound to inhibit the growth of the human naso-pharyngeal cell line KB.
KB cells were seeded into wells at a density of 1 x 10 - 1.5 x 10^4 cells per well and grown for 24 hours in DMEM supplemented with 5% FCS (charcoal-stripped). Cell growth was determined after incubation for 3 days by the extent of metabolism of MTT tetrazolium dye to furnish a bluish colour. Cell growth was then determined in the presence of EGF (10 ng/ml) or in the presence of EGF (10 ng/ml) and a test compound at a range of concentrations. An IC50 value could then be calculated.

Test [2] has as its target T1, receptor tyrosine kinase (Homo sapiens, UniProt P00533).
T1 construct: The supernatant, containing solubilised receptor tyrosine kinase, was stored in liquid nitrogen; endogenous in cells; host or cells: A-431 cells (human vulval carcinoma); detergent-solubilised membrane fraction
In words: Test (a): in vitro receptor tyrosine kinase inhibition assay (EGF-stimulated peptide phosphorylation, [γ-32P]ATP). It is filed as biochemical. The note with it: enzyme partially purified from A-431 cells (human vulval carcinoma); in presence of EGF; 25°C for 10 minutes. The method, then: (a) An in vitro assay which determines the ability of a test compound to inhibit the enzyme receptor tyrosine kinase. Receptor tyrosine kinase was obtained in partially purified form from A-431 cells (derived from human vulval carcinoma) by procedures related to those described by Carpenter et al., J. Biol. Chem., 1979, 254, 4884, Cohen et al., J. Biol. Chem., 1982, 257, 1523 and by Braun et al., J. Biol. Chem., 1984, 259, 2051.
A-431 cells were grown to confluence using Dulbecco′s modified Eagle′s medium (DMEM) containing 5% fetal calf serum (FCS). The obtained cells were homogenised in a hypotonic borate/EDTA buffer at pH 10.1. The homogenate was centrifuged at 400 g for 10 minutes at 0-4°C. The supernatant was centrifuged at 25,000 g for 30 minutes at 0-4°C. The pelleted material was suspended in 30 mM Hepes buffer at pH 7.4 containing 5% glycerol, 4 mM benzamidine and 1% Triton X-100, stirred for 1 hour at 0-4°C, and recentrifuged at 100,000 g for 1 hour at 0-4°C. The supernatant, containing solubilised receptor tyrosine kinase, was stored in liquid nitrogen.
For test purposes 40 µl of the enzyme solution so obtained was added to a mixture of 400 µl of a mixture of 150 mM Hepes buffer at pH 7.4, 500 µM sodium orthovanadate, 0.1% Triton X-100, 10% glycerol, 200 µl water, 80 µl of 25 mM DTT and 80µl of a mixture of 12.5 mM manganese chloride, 125 mM magnesium chloride and distilled water. There was thus obtained the test enzyme solution.
Each test compound was dissolved in dimethylsulphoxide (DMSO) to give a 50 mM solution which was diluted with 40 mM Hepes buffer containing 0.1% Triton X-100, 10% glycerol and 10% DMSO to give a 500 µM solution. Equal volumes of this solution and a solution of epidermal growth factor (EGF; 20 µg/ml) were mixed.
[γ-^32P]ATP (3000 Ci/mM, 250 µCi) was diluted to a volume of 2 ml by the addition of a solution of ATP (100 µM) in distilled water. An equal volume of a 4 mg/ml solution of the peptide Arg-Arg-Leu-Ile-Glu-Asp-Ala-Glu-Tyr-Ala-Ala-Arg-Gly in a mixture of 40 mM Hepes buffer at pH 7.4, 0.1% Triton X-100 and 10% glycerol was added.
The test compound/EGF mixture solution (5 µl) was added to the test enzyme solution (10 µl) and the mixture was incubated at 0-4°C for 30 minutes. The ATP/peptide mixture (10 µl) was added and the mixture was incubated at 25°C for 10 minutes. […] Radioactivity present in the filter paper was measured using a liquid scintillation counter (Sequence A). […]
Receptor tyrosine kinase inhibition was calculated as follows:- % Inhibition =[…] [formula]
The extent of inhibition was then determined at a range of concentrations of test compound to give an IC50 value.

pIC50: −log10 of the molar value. Counter-ions that a name gives are not always drawn.

T1 sequence (P00533 25-1210): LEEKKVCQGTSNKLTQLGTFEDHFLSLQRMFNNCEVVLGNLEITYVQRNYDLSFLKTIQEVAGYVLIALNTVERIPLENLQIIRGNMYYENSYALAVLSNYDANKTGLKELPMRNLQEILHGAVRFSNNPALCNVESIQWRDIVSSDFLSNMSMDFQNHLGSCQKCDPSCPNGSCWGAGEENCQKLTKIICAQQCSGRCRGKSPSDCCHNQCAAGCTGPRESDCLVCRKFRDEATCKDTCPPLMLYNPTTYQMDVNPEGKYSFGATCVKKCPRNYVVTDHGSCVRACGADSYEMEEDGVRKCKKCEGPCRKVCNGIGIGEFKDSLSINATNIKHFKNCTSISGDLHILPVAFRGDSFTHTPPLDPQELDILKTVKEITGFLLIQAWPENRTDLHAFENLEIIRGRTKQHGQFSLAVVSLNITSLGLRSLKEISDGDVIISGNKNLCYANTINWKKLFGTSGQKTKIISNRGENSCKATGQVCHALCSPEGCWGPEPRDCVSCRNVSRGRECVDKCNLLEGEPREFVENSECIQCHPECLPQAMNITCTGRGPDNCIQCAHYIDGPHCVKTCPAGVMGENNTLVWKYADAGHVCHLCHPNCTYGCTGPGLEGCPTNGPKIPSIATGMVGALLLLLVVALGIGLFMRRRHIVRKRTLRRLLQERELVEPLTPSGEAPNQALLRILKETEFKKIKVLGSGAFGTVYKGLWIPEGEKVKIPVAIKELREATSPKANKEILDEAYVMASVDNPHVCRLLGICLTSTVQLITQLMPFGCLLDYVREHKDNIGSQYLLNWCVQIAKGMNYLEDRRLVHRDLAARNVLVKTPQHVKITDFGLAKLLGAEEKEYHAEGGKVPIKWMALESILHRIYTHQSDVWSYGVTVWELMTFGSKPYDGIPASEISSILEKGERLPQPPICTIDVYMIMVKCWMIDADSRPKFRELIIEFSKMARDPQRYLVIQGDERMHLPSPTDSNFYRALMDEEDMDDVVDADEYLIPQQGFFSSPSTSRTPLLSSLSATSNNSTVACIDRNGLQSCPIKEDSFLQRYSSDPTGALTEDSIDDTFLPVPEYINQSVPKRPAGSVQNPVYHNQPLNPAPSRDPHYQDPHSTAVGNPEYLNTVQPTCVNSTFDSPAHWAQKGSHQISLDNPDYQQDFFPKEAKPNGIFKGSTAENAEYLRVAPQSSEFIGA

Consider `Clc1cccc(Nc2ncnc3ccccc23)c1` [4-(3'-chloroanilino)quinazoline, 4-(3′-chloroanilino)quinazoline hydrochloride], for which the pIC50 (commonly −log10 of the IC50, conventionally taken in molar units) in test [1] is about 5.30; in test [2], 7.40.

In the case of `Clc1cccc(Nc2ncnc3cc(Cl)ccc23)c1` [7-chloro-4-(3'-chloroanilino)quinazoline], the pIC50 was 6.00 in test [1] and 7.70 in test [2].

Regarding `Brc1cccc(Nc2ncnc3ccccc23)c1` [4-(3'-bromoanilino)quinazoline, 4-(3'-bromoanilino)quinazoline hydrochloride], the values for the pIC50 in test [1] and in test [2] were 6.11 and 7.70, respectively.

On to `Cc1cccc(Nc2ncnc3ccccc23)c1` [4-(3'-methylanilino)-quinazoline], for which the pIC50 in test [1] was about 5.30; in test [2], 6.74.

The values are drawn from patent EP0520722B1, “Therapeutic preparations containing quinazoline derivatives” (ZENECA LIMITED, priority 1991, dated 1992).
